Results taken from US20240124410A1, “SMALL MOLECULES AND THEIR USE AS MALT1 INHIBITORS” (University of Pittsburgh - Of the Commonwealth System of …, priority 2021, published 2024).

Molecular target: T1, BCL10-MALT1 interaction (Homo sapiens, UniProt Q9UDY8)
T1 sequence (Q9UDY8 1-824): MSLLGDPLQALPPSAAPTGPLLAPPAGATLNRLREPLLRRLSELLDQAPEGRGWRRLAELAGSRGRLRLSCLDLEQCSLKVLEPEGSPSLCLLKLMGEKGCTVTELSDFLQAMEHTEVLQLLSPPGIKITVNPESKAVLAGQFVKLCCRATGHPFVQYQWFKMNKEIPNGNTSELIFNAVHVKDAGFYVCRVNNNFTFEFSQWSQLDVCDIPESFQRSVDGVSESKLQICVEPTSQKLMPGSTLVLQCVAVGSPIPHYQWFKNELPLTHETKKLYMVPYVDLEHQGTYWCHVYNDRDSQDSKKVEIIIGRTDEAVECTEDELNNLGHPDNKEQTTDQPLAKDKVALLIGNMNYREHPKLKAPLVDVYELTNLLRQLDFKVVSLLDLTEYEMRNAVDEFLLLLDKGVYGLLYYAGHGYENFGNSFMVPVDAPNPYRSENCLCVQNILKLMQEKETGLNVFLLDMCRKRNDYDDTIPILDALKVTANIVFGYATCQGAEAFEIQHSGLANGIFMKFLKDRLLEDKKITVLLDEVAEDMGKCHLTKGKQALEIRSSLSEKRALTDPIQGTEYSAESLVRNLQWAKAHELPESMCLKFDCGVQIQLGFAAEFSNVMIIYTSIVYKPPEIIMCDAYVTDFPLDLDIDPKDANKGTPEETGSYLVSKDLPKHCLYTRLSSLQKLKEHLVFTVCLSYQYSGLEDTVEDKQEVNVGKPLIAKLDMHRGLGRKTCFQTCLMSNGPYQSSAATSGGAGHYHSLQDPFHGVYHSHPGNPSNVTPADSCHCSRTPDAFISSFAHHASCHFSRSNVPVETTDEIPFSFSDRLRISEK
Assay: ELISA-based protein-protein interaction assay, BCL10-MALT1 (FIG. 2F, 2H); His-tagged recombinant human full-length Bcl10 on plate, GST-tagged recombinant human full-length MALT1
Design: GST-tagged recombinant human full-length MALT1 protein; GST; purchased Novus Biologicals H00010892-P01
Settings: compound preincubated with 100 ng GST-MALT1 for 1 hour, 100 ng His-Bcl10 on plate, one-site binding fit, read-out: IC50 for inhibition of BCL10-MALT1 binding (ELISA)
From the text: FIG. 2. In silico screening identifies small molecules targeting the predicted BCL10-binding groove within MALT1 (Ig1-2). (A) We performed a structure-guided in silico screen of 3 million compounds, using the LibDock program from Discovery Studio 3.5, in order to identify candidate molecules that could potentially fit within the identified groove in the MALT1 Ig1-2 domain. Lipinski's rule of five filters (LipinskiRo5) were applied to enrich for compounds with drug-like properties. Potential compound hits were then screened for their ability to disrupt the MALT1-BCL10 interaction using SPR analysis. 9 candidate compounds were then subjected to a second, ELISA-based MALT1-BCL10 interaction assay, identifying 2 compounds that could disrupt the interaction in both SPR and ELISA assays. M1i-124 and M1i-1255 are the two compounds identified to disrupt the BCL10-MALT1 interaction. M1i-124 became our lead compound and M1i-1255 is partially characterized in FIG. 8. (B) Structure of M1i-124. (C) Model of M1i-124 docked onto the MALT1 Ig1-2 domain groove (PDB 3K0W). […] (E) SPR analysis was performed to determine the IC50 for M1i-124 disruption of the BCL10-MALT1 interaction in a dose-response assay. (F) ELISA analysis confirmed that M1i-124 disrupts the interaction between BCL10 and MALT1 in dose dependent fashion (left). […] Circles highlight sites that differ from parent compound, M1i-124. […]

## COc1ccc(CNS(=O)(=O)c2ccc(Cc3ccc(S(=O)(=O)NCc4ccc(OC)cc4)cc3)cc2)cc1 [M1i-124d1]
  IC50: 8.45 µM
